Test results from ChEMBL document CHEMBL2375267, “A comprehensive review on synthesis and designing aspects of coumarin derivatives as monoamine oxidase inhibitors for depression and Alzheimer's disease” (Bioorg Med Chem, 2013).
Blank lines part the entries; values can stand above or below the compound they belong to.

Assays:
[1] = molecular target: T1, Amine oxidase [flavin-containing] B (Homo sapiens, UniProt P27338); experiment: Inhibition of MAO-B (unknown origin)
T1 sequence (P27338 whole entry): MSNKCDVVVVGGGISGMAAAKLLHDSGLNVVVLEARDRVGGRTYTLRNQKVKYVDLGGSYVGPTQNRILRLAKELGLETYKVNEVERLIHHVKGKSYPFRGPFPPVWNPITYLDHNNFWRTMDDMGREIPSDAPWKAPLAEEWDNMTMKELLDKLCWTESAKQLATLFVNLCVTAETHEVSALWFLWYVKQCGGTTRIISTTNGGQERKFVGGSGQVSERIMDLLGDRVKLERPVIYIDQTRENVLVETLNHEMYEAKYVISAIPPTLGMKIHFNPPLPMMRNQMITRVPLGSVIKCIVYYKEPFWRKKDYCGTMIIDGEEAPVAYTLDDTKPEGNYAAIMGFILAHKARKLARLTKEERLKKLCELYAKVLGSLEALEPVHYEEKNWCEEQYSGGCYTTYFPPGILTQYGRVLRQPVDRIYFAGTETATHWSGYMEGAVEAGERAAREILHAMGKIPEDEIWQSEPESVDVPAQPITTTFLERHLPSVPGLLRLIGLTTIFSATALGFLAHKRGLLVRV

Homo sapiens [2] = organism: Homo sapiens; experiment: Selectivity ratio for MAO-A (unknown origin) over MAO-B (unknown origin)
Homo sapiens [3] = organism: Homo sapiens; experiment: Selectivity index, ratio of pIC50 for MAO-B (unknown origin) to pIC50 for MAO-A (unknown origin)
[4] = Inhibition of mouse brain monoamine oxidase using kynuramine as substrate by fluorometric analysis
[5] = molecular target: T2, Amine oxidase [flavin-containing] A (Homo sapiens, UniProt P21397); experiment: Inhibition of MAO-A (unknown origin)
T2 sequence (P21397 whole entry): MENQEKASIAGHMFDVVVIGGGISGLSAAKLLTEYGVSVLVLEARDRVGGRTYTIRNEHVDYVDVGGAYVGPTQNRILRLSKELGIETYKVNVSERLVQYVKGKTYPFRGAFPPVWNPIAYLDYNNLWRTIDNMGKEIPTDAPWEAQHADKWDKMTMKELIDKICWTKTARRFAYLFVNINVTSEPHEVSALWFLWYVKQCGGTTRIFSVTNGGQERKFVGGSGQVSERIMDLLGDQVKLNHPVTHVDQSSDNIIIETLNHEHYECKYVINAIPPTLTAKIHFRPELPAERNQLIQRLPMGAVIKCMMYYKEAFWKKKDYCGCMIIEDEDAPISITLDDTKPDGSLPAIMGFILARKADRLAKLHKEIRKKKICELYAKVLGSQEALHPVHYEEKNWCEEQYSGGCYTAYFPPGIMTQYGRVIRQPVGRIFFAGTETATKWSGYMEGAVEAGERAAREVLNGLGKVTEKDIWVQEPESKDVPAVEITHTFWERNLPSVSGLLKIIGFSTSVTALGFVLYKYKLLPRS

[6] = Inhibition of mouse brain monoamine oxidase
[7] = molecular target: T3, Amine oxidase [flavin-containing] A (Mus musculus, UniProt Q64133); experiment: Inhibition of mouse brain MAO-A
T3 sequence (Q64133 whole entry): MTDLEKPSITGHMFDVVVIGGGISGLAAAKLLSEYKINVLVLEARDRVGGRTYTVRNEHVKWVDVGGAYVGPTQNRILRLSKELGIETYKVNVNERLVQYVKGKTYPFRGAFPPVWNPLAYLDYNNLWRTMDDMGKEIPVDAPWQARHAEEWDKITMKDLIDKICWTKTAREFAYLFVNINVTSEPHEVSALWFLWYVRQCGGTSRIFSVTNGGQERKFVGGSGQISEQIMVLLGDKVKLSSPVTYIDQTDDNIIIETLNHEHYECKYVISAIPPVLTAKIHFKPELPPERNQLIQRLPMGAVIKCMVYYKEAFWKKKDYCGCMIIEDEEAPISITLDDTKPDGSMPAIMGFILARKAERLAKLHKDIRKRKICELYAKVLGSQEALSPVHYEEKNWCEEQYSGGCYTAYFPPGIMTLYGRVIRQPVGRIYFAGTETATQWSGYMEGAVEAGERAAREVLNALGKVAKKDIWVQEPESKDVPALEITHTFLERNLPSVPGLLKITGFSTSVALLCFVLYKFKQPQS

[8] = molecular target: T4, Amine oxidase [flavin-containing] B (Mus musculus, UniProt Q8BW75); experiment: Inhibition of mouse brain MAO-B
T4 sequence (Q8BW75 whole entry): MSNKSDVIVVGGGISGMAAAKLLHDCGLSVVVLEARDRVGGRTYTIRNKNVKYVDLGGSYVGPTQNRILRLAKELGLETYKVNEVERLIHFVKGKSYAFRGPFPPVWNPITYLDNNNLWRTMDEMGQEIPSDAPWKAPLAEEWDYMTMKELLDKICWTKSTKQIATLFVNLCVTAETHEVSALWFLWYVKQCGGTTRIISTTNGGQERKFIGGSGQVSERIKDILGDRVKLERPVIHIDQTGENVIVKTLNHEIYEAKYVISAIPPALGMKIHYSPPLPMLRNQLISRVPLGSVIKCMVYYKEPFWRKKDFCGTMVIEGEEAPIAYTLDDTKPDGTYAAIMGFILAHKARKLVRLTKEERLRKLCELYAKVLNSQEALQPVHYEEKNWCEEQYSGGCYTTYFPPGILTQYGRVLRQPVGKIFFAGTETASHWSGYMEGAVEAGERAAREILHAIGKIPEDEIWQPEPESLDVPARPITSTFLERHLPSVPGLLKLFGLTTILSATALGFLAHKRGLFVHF

SMILES: CC1(C)OC(/C=C/COc2ccc3ccc(=O)oc3c2)=CC1=O
Selectivity ratio (Homo sapiens [2]): 850

SMILES: COc1c2ccoc2cc2oc(=O)ccc12 [BERGAPTEN]
IC50 [5]: 13.8 µM | IC50 [6]: 13.8 µM

SMILES: CC(C)=CCC/C(C)=C/COc1ccc2ccc(=O)oc2c1
IC50 [7]: 3.46e-05 µM | IC50 [6]: 1.7 µM | IC50 [8]: 0.6 µM

SMILES: C=C(C)[C@H](O)CC/C(C)=C/COc1ccc2ccc(=O)oc2c1
IC50 [7]: 1.3 µM | IC50 [6]: 0.7 µM | IC50 [8]: 0.5 µM

SMILES: COc1c(OCC=C(C)C)ccc2ccc(=O)oc12 [LACINARTIN]
IC50 [7]: 5.7 µM | IC50 [6]: 9.2 µM | IC50 [8]: 28.6 µM

SMILES: C/C=C(/C)C(=O)O[C@H]1[C@@H](OC(C)=O)c2c(ccc3ccc(=O)oc23)OC1(C)C
IC50 [6]: 27.4 µM

Next, values leading:

IC50 [1]: 0.01 µM
SMILES: O=C(Cl)c1cc2cc(Cl)ccc2oc1=O

IC50 [1]: 0.0174 µM | Ratio pIC50 (Homo sapiens [3]): 2.94
SMILES: O=C(O)c1cc2ccccc2oc1=O [COUMARIN-3-CARBOXYLIC ACID]

IC50 [4]: 31.1 µM
SMILES: O=c1ccc2cc(O)c(O)cc2o1 [ESCULETIN]

IC50 [4]: 45 µM
SMILES: COc1cc2ccc(=O)oc2cc1O [SCOPOLETIN]

IC50 [1]: 0.0191 µM | Ratio pIC50 (Homo sapiens [3]): 2.8
SMILES: Cc1ccc2oc(=O)c(C(=O)O)cc2c1

IC50 [5]: 21.3 µM | IC50 [6]: 35.8 µM
SMILES: O=c1ccc2cc3ccoc3cc2o1 [PSORALEN]

IC50 [4]: 32.2 µM
SMILES: COc1cc2oc(=O)ccc2cc1O [ISOSCOPOLETIN]
